In US20100113504A1, “AMIDE COMPOUNDS AND THEIR USE AS ANTITUMOR AGENTS” (SIGMA-TAU INDUSTRIE FARMACEUTICHE RIUNITE S.P.A., priority 2007, published 2010) one finds IC50 data, which are given here for 22 compounds.

Structures are written as SMILES. Where a name gives a salt, the structure may show the parent alone. Read-outs that look alike come from different tables or passages of the source. Some results are limits rather than exact numbers.

What all share (type): cell-based
Experiment [1] concerns NB4 human promyelocitic leukaemia. Put plainly: Cytotoxicity (sulphorodamine B) on NB4 tumor cells. Particulars: then 48 h in drug-free medium, read-out: IC50 ± SD, NB4. How it is done: To test the effects of the compounds on cell growth, NB4 human promyelocitic leukaemia, NCI-H460 non-small cell carcinoma cells and HCT-116 human colon carcinoma cells were used. NB4 and NCI-H460 tumor cells were grown RPMI 1640 containing 10% fetal bovine serum (GIBCO), whereas HCT-116 tumor cells were grown in McCoy's 5A containing 10% fetal bovine serum (GIBCO).
(§1) Tumor cells were seeded in 96-well tissue culture plates at approximately 10% confluence and were allowed to attach and recover for at least 24 h. […] The plates were incubated for 24 h at 37° C. At the end of the treatment, for NB4 tumor cells in suspension, the procedure was performed as follows: medium culture was removed by centrifugation of the plates at 1600×g for 10 min and the surnatant was removed. 250 μl PBS were added, then the plates were centrifuged at 1600×g for 10 min, the surnatant was removed. 200 μl/well of medium culture RPMI 1640 containing 10% FCS were added and the plates were incubated at 37° C. for other 48 h. The plates were centrifuged again at 1600×g for 10 min, the medium culture was removed and 200 μl PBS and 50 μl of cold 80% TCA were added. The plates were incubated on ice for at least 1 h. TCA was removed, the plates were washed 3 times for immersion in distilled-water and dried before on paper, then in a thermostater at 40° C. Subsequently 200 μl of 0.4% sulphorodamine B in 1% acetic acid were added. The plates were incubated at room temperature for other 30 min. Sulphorodamine B was removed, the plates were washed for immersion in 1% acetic acid for 3 times, then they were washed and dried on paper. 200 μl Tris 10 mM were added, the plates were kept under stirring for 20 min. The survival cell was determined as optical density by a Multiskan spectrofluorimeter at 540 nm. For the tumor cells in adhesion (NCI-H460 and HCT-116), the procedure was as above mentioned, except that the at the end of the treatment, the plates were washed by remotion of the surnatant and addition of PBS 3 times and not by centrifugation. Also the last day of the assay, the surnatant was removed without centrifugation.
(§2) The amount of cells killed was calculated as the percentage decrease in sulphorodamine B binding compared with control cultures.

For experiment [2], the system named is NCI-H460 non-small cell carcinoma cells. Put plainly: Cytotoxicity (sulphorodamine B) on NCI-H460 tumor cells. Particulars: 24 h treatment, then 48 h in drug-free medium, read-out: IC50 ± SD, NCI-H460. How it is done:
as §1, with “200 μl/well of medium culture RPMI 1640 containing 10% FCS were added and the plates were incubated at 37° C. for other 48 h.” left out, “For the tumor cells in adhesion (NCI-H460 and HCT-116), the procedure was as above mentioned, except that the at the end of the treatment, the plates were washed by remotion of the surnatant and addition of PBS 3 times and not by centrifugation.” left out
as §2

Experiment [3] relates to HCT-116 human colon carcinoma cells. Kind of experiment: Cytotoxicity (sulphorodamine B) on HCT-116 tumor cells. The note with it: HCT-116 cells, 24 h treatment, then 48 h in drug-free medium, read-out: IC50 ± SD, HCT-116. How it is done:
as §1, with “200 μl/well of medium culture RPMI 1640 containing 10% FCS were added and the plates were incubated at 37° C. for other 48 h.” left out, “For the tumor cells in adhesion (NCI-H460 and HCT-116), the procedure was as above mentioned, except that the at the end of the treatment, the plates were washed by remotion of the surnatant and addition of PBS 3 times and not by centrifugation.” left out
as §2

Experiment [4] relates to NB4, NCI-H460 and HCT-116 tumor cells. Kind of experiment: Cytotoxicity summarised over the three tumor cell lines. The note with it: Homo sapiens; mean over NB4, NCI-H460, HCT-116; 24 h of treatment. How it is done:
as §1, with “200 μl/well of medium culture RPMI 1640 containing 10% FCS were added and the plates were incubated at 37° C. for other 48 h.” left out, “For the tumor cells in adhesion (NCI-H460 and HCT-116), the procedure was as above mentioned, except that the at the end of the treatment, the plates were washed by remotion of the surnatant and addition of PBS 3 times and not by centrifugation.” left out
as §2

Where [5] appears, read: Homo sapiens, NB-4, 24 h treatment.

For the compound `COc1ccc(COC(CCCCCC(=O)NO)C(=O)Nc2ccc(OC)cc2)cc1` (racemic) [Compound 9m, (±)-2-(4-Methoxybenzyloxy)octanedioic acid 8-hydroxyamide 1-[(4-methoxyphenyl)amide]], the IC50 in experiment [1] (setting [5]) was 100 ± 40 nM; in experiment [2] (Homo sapiens), 300 ± 40 nM; in experiment [3] (Homo sapiens), 300 ± 10 nM; in experiment [4], under 1000 nM.
`Cc1ccc(COC(CCCCCC(=O)NO)C(=O)Nc2ccccc2)cc1` (racemic) [Compound 9g, (±)-2-(4-Methylbenzyloxy)octanedioic acid 8-hydroxyamide 1-phenylamide]: the half-inhibitory concentration (IC50) is 100 ± 10 nM in experiment [1] (setting [5]), 600 ± 10 nM in experiment [2] (Homo sapiens), 300 ± 9 nM in experiment [3] (Homo sapiens) and under 1000 nM in experiment [4].
As to `O=C(CCCCCC(OCc1ccc(C(F)(F)F)cc1)C(=O)Nc1ccccc1)NO` (racemic) [Compound 9e, (±)-2-(4-Trifluoromethylbenzyloxy)octanedioic acid 8-hydroxyamide 1-phenylamide], the concentration for half-maximal inhibition (IC50) is 200 ± 2 nM in experiment [1] (setting [5]), 500 ± 60 nM in experiment [2] (Homo sapiens), 400 ± 30 nM in experiment [3] (Homo sapiens) and under 1000 nM in experiment [4].
The corresponding values for `COc1ccc(COC(CCCCCC(=O)NO)C(=O)Nc2ccccc2)cc1` (racemic) [Compound 9d, (±)-2-(4-Methoxybenzyloxy)octanedioic acid 8-hydroxyamide 1-phenylamide] are 100 ± 10 nM, 500 ± 20 nM, 200 ± 6 nM and under 1000 nM.
In the case of `O=C(CCCCCCC(O)C(=O)Nc1ccccc1)NO` (racemic) [Compound 13a, (±)-2-Hydroxynonanedioic acid 9-hydroxyamide 1-phenylamide], the results for the IC50 in experiment [1] (setting [5]), in experiment [2] (Homo sapiens) and in experiment [3] (Homo sapiens) were 900 ± 100 nM, 3600 ± 800 nM and 1600 ± 50 nM, respectively.
`COc1cccc(COC(CCCCCC(=O)NO)C(=O)N(Cc2cccc(OC)c2)c2ccccc2)c1` (racemic) [Compound 9i, (±)-2-(3-methoxybenzyloxy)octanedioic acid 8-hydroxyamide 1-[(3-methoxybenzyl)phenylamide]]: the IC50 in experiment [1] (24 h treatment) is 4000 ± 700 nM; in experiment [2], 7400 ± 500 nM; in experiment [3] it was 7500 ± 400 nM.
Turning to `CCCOC(CCCCC(=O)NO)C(=O)Nc1ccccc1` (racemic) [Compound 5e, (±)-2-Propoxyheptanedioic acid 7-hydroxyamide 1-phenylamide], the IC50 in experiment [1] (setting [5]) amounted to 4100 ± 300 nM; in experiment [2] (Homo sapiens), 10400 ± 1200 nM; in experiment [3] (Homo sapiens) it was 8500 ± 300 nM.
Turning to `O=C(CCCCC[C@@H]1NCCCCCCOc2ccccc2NC1=O)NO` [(S)-42a, 6-(6-Oxo-5,6,7,8,9,10,11,12,13,14-decahydro-15-oxa-5,8-diazabenzocyclotridecen-7-(S)yl)hexanoic acid hydroxyamide hydrochloride], the IC50 came to 1100 ± 70 nM in experiment [2] (Homo sapiens) and 800 ± 70 nM in experiment [3] (Homo sapiens).
Turning to `O=C(CCCCCC1OCCCCCCOc2ccncc2NC1=O)NO` (racemic) [Compound 46, (±)-6-(14-Oxo-6,7,8,9,10,11,14,15-octahydro-13H-5,12-dioxa-2,15-diazabenzocyclotridecen-13-yl)hexanoic acid hydroxyamide], the IC50 in experiment [2] (Homo sapiens) stood at 20000 nM; in experiment [3] (Homo sapiens), 13000 ± 1700 nM.
Consider `CO[C@@H](CCCCC(=O)NO)C(=O)Nc1ccccc1` [(S)-5b, 2-(S)-Methoxyheptanedioic acid 7-hydroxyamide 1-phenylamide], for which the 50% inhibitory concentration (IC50) in experiment [1] (setting [5]) was 3500 ± 300 nM; in experiment [2] (Homo sapiens), 7800 ± 500 nM; in experiment [3] (Homo sapiens), 6800 ± 300 nM.
Take `COc1ccc(CO[C@@H](CCCCCC(=O)NO)C(=O)Nc2ccccc2)cc1` [(S)-9d, 2-(S)-(4-Methoxybenzyloxy)octanedioic acid 8-hydroxyamide 1-phenylamide]: the IC50 in experiment [1] (24 h treatment) came to 100 ± 2 nM; in experiment [2] it was 400 ± 30 nM; in experiment [3] it was 200 ± 7 nM.
With `CO[C@H](CCCCC(=O)NO)C(=O)Nc1ccccc1` [(R)-5b, 2-(R)-Methoxyheptanedioic acid 7-hydroxyamide 1-phenylamide], the IC50 was determined as 4000 ± 600 nM in experiment [1] (setting [5]), 9600 ± 500 nM in experiment [2] (Homo sapiens) and 7800 ± 500 nM in experiment [3] (Homo sapiens).
For the compound `O=C(CCCCC(OCc1ccccc1)C(=O)Nc1ccccc1)NO` (racemic) [Compound 5f, (±)-2-Benzyloxyheptanedioic acid 7-hydroxyamide 1-phenylamide], the IC50 in experiment [1] (setting [5]) is over 5000 nM; in experiment [2] (Homo sapiens), 5500 ± 600 nM; in experiment [3] (Homo sapiens) it was 2400 ± 60 nM.
Turning to `COc1cc2cc(c1)COc1ccccc1NC(=O)C(CCCCCC(=O)NO)OCC=C2` (racemic) [Compound 32, (±)-6-(19-Methoxy-11-oxo-3,13-dioxa-10-azatricyclo[15.3.1.04,9]henicosa-1(21),4(9),5,7,15,17,19-heptaen-12-yl)hexanoic acid hydroxyamide], the IC50 is 900 ± 80 nM in experiment [2] (Homo sapiens), 400 ± 30 nM in experiment [3] (Homo sapiens) and under 1000 nM in experiment [4].
On to `C=CCOC(CCCCCC(=O)NO)C(=O)Nc1ccccc1` (racemic) [Compound 9c, (±)-2-Allyloxyoctanedioic acid 8-hydroxyamide 1-phenylamide], for which the IC50 is 400 ± 20 nM in experiment [1] (setting [5]), 1800 ± 100 nM in experiment [2] (Homo sapiens) and 1000 ± 100 nM in experiment [3] (Homo sapiens).
The corresponding values for `C=CCOC(CCCCC(=O)NO)C(=O)Nc1ccccc1` (racemic) [Compound 5c, (±)-2-Allyloxyheptanedioic acid 7-hydroxyamide 1-phenylamide] are 4500 ± 400 nM, 8600 ± 300 nM and 4300 ± 200 nM.
Taken in the same sequence, the figures for `O=C(CCCCC(O)C(=O)Nc1ccccc1)NO` (racemic) [Compound 5a, (±)-2-Hydroxyheptanedioic acid 7-hydroxyamide 1-phenylamide] were 3700 ± 600 nM, 13700 ± 2600 nM and 8600 ± 200 nM.
For the compound `C=C(C)COC(CCCCC(=O)NO)C(=O)Nc1ccccc1` (racemic) [Compound 5d, (±)-2-(2-Methylallyloxy)heptanedioic acid 7-hydroxyamide 1-phenylamide], the IC50 came to 9600 ± 800 nM in experiment [1] (setting [5]), 14700 ± 1600 nM in experiment [2] (Homo sapiens) and 12400 ± 200 nM in experiment [3] (Homo sapiens).
For `C=CCOC(CCCCCCC(=O)NO)C(=O)Nc1ccccc1` (racemic) [Compound 13c, (±)-2-Allyloxynonanedioic acid 9-hydroxyamide 1-phenylamide], the IC50 turned out to be 600 ± 60 nM in experiment [1] (setting [5]), 1500 ± 300 nM in experiment [2] (Homo sapiens) and 1000 ± 50 nM in experiment [3] (Homo sapiens).
The corresponding values for `COC(CCCCCCC(=O)NO)C(=O)Nc1ccccc1` (racemic) [Compound 13b, (±)-2-Methoxynonanedioic acid 9-hydroxyamide 1-phenylamide] are 800 ± 30 nM, 1900 ± 100 nM and 1100 ± 9 nM.
Consider `COC(CCCCC(=O)NO)C(=O)Nc1ccccc1` (racemic) [Compound 5b, (±)-2-Methoxyheptanedioic acid 7-hydroxyamide 1-phenylamide], for which the IC50 stood at 3500 ± 400 nM in experiment [1] (setting [5]), 5700 ± 500 nM in experiment [2] (Homo sapiens) and 5000 ± 100 nM in experiment [3] (Homo sapiens).
Taken in the same sequence, the figures for `COc1ccc(COC(CCCCC(=O)NO)C(=O)Nc2ccccc2)cc1` (racemic) [Compound 5g, (±)-2-(4-Methoxybenzyloxy)heptanedioic acid 7-hydroxyamide 1-phenylamide] were 1000 ± 100 nM, 2000 ± 300 nM and 1300 ± 60 nM.

What is called IC50 is the concentration that gives 50% inhibition.
